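Following 48 hours of exposure in 96-well plates, responses at five concentrations were used to interpolate endpoints linearly. TGI: concentration producing complete growth inhibition.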
How the values were obtained:
Test in all cases: NCI-60 cell line screen, 48 h
COLO 205 colon = system: COLO 205 colon
MDA-N = system: MDA-N
CCRF-CEM leukemia = system: CCRF-CEM leukemia
SF-539 CNS = system: SF-539 CNS
SNB-19 CNS = system: SNB-19 CNS
KM12 colon = system: KM12 colon
SW-620 colon = system: SW-620 colon
TK-10 renal = system: TK-10 renal
SF-295 CNS = system: SF-295 CNS
A549 NSCLC = system: A549 NSCLC
SF-268 CNS = system: SF-268 CNS
NCI-H226 lung = system: NCI-H226 lung
SK-MEL-28 melanoma = system: SK-MEL-28 melanoma
RPMI-8226 leukemia = system: RPMI-8226 leukemia
EKVX NSCLC = system: EKVX NSCLC
UACC-257 melanoma = system: UACC-257 melanoma
IGROV1 ovarian = system: IGROV1 ovarian
OVCAR-4 ovarian = system: OVCAR-4 ovarian
A498 renal = system: A498 renal
786-0 renal = system: 786-0 renal
UO-31 renal = system: UO-31 renal
HOP-92 NSCLC = system: HOP-92 NSCLC
LOX IMVI melanoma = system: LOX IMVI melanoma
UACC-62 melanoma = system: UACC-62 melanoma
ACHN renal = system: ACHN renal
SK-OV-3 ovarian = system: SK-OV-3 ovarian
PC-3 prostate = system: PC-3 prostate
DU-145 prostate = system: DU-145 prostate
OVCAR-3 ovarian = system: OVCAR-3 ovarian
HL-60(TB) leukemia = system: HL-60(TB) leukemia
HCC-2998 colon = system: HCC-2998 colon
MCF7 breast = system: MCF7 breast
HS 578T breast = system: HS 578T breast
MDA-MB-231 breast = system: MDA-MB-231 breast
OVCAR-5 ovarian = system: OVCAR-5 ovarian
OVCAR-8 ovarian = system: OVCAR-8 ovarian
K-562 leukemia = system: K-562 leukemia
HCT-116 colon = system: HCT-116 colon
MALME-3M melanoma = system: MALME-3M melanoma
NCI-H23 lung = system: NCI-H23 lung
SN12C renal = system: SN12C renal
HCT-15 colon = system: HCT-15 colon
NCI-H522 lung = system: NCI-H522 lung
CAKI-1 renal = system: CAKI-1 renal
NCI/ADR-RES ovarian = system: NCI/ADR-RES ovarian
MOLT-4 leukemia = system: MOLT-4 leukemia
SK-MEL-2 melanoma = system: SK-MEL-2 melanoma
NCI-H460 lung = system: NCI-H460 lung
T-47D breast = system: T-47D breast
MDA-MB-435 = system: MDA-MB-435
HT29 colon = system: HT29 colon
SK-MEL-5 melanoma = system: SK-MEL-5 melanoma
BT-549 breast = system: BT-549 breast
M14 melanoma = system: M14 melanoma
HOP-62 NSCLC = system: HOP-62 NSCLC
SR leukemia = system: SR leukemia
U251 CNS = system: U251 CNS

## CCCCCCCSCC(O)COC(c1ccccc1)(c1ccccc1)c1ccccc1 (configuration not stated)
COLO 205 colon
  TGI: > 100 µM
MDA-N
  TGI: > 100 µM
CCRF-CEM leukemia
  TGI: > 100 µM
SF-539 CNS
  TGI: > 100 µM
SNB-19 CNS
  TGI: > 100 µM
KM12 colon
  TGI: 16.9 µM
SW-620 colon
  TGI: > 100 µM
TK-10 renal
  TGI: > 100 µM
SF-295 CNS
  TGI: > 100 µM
A549 NSCLC
  TGI: > 100 µM
SF-268 CNS
  TGI: 66.8 µM
NCI-H226 lung
  TGI: 85 µM
SK-MEL-28 melanoma
  TGI: > 100 µM
RPMI-8226 leukemia
  TGI: 87.3 µM
EKVX NSCLC
  TGI: > 100 µM
UACC-257 melanoma
  TGI: > 100 µM
IGROV1 ovarian
  TGI: > 100 µM
OVCAR-4 ovarian
  TGI: > 100 µM
A498 renal
  TGI: > 100 µM
786-0 renal
  TGI: > 100 µM
UO-31 renal
  TGI: 27.8 µM
HOP-92 NSCLC
  TGI: > 100 µM
LOX IMVI melanoma
  TGI: > 100 µM
UACC-62 melanoma
  TGI: > 100 µM
ACHN renal
  TGI: 76.3 µM
SK-OV-3 ovarian
  TGI: > 100 µM
PC-3 prostate
  TGI: > 100 µM
DU-145 prostate
  TGI: > 100 µM
OVCAR-3 ovarian
  TGI: > 100 µM
HL-60(TB) leukemia
  TGI: 63.9 µM
HCC-2998 colon
  TGI: > 100 µM
MCF7 breast
  TGI: > 100 µM
HS 578T breast
  TGI: 50.1 µM
MDA-MB-231 breast
  TGI: > 100 µM
OVCAR-5 ovarian
  TGI: > 100 µM
OVCAR-8 ovarian
  TGI: > 100 µM
K-562 leukemia
  TGI: > 100 µM
HCT-116 colon
  TGI: > 100 µM
MALME-3M melanoma
  TGI: > 100 µM
NCI-H23 lung
  TGI: 60.3 µM
SN12C renal
  TGI: > 100 µM
HCT-15 colon
  TGI: > 100 µM
NCI-H522 lung
  TGI: > 100 µM
CAKI-1 renal
  TGI: > 100 µM
NCI/ADR-RES ovarian
  TGI: > 100 µM
MOLT-4 leukemia
  TGI: > 100 µM
SK-MEL-2 melanoma
  TGI: 52.5 µM
NCI-H460 lung
  TGI: > 100 µM
T-47D breast
  TGI: > 100 µM
MDA-MB-435
  TGI: > 100 µM
HT29 colon
  TGI: 68.5 µM
SK-MEL-5 melanoma
  TGI: 47.9 µM
BT-549 breast
  TGI: > 100 µM
M14 melanoma
  TGI: > 100 µM
HOP-62 NSCLC
  TGI: > 100 µM
SR leukemia
  TGI: 85.4 µM
U251 CNS
  TGI: > 100 µM

Reference: PubChem BioAssay (NCI)
